Source: PMC8270334, “Design, Sustainable Synthesis and Biological Evaluation of a Novel Dual α2A/5-HT7 Receptor Antagonist with Antidepressant-Like Properties” (Molecules, 2021)

Each molecule was assayed against T1, 5-HT7R (Homo sapiens, UniProt P34969) (assay: intrinsic activity at 5-HT7R, LANCE cAMP assay in HEK-293 cells, 5-CT stimulated). Conditions: read-out: 5-HT7 Kb.
T1 construct: expressed in transfected cells; host or cells: HEK-293 (prepared with Lipofectamine 2000, G418 selection)
Type: cell-based
Protocol: Cells (prepared with the use of Lipofectamine 2000) were maintained at 37 °C in a humidified atmosphere with 5% CO2 and grown in Dulbeco’s Modifier Eagle Medium containing 10% dialyzed fetal bovine serum and […] G418 sulphate. For functional experiments, cells were subcultured in 25 cm diameter dishes, grown to 90% confluence, washed twice with pre-warmed to 37 °C phosphate buffered saline (PBS) and were centrifuged for 5 min (160× g). The supernatant was aspirated, then the cell pellet was resuspended in stimulation buffer (1 × HBSS, 5 mM HEPES, 0.5 mM IBMX, 0.1% BSA). The cAMP level was measured using the LANCE cAMP detection kit (PerkinElmer), according to the manufacturer’s directions. […] Cells (5 µL) were incubated with compounds (5 µL) for 30 min at room temperature in 384-well white opaque microtiter plate. After incubation, the reaction was stopped, and cells were lysed by the addition of 10 µL working solution (5 µL Eu-cAMP and 5 µL ULight-anti-cAMP). The assay plate was incubated for 1 h at room temperature. Time-resolved fluorescence resonance energy transfer (TR-FRET) was detected by an Infinite M1000 Pro (Tecan) using instrument settings from LANCE cAMP detection kit manual. Kb values were calculated from the Cheng–Prusoff equation specific for the analysis of functional inhibition curves: Kb = IC50/(1+A/EC50) where A is the agonist concentration, IC50 is the concentration of the antagonist producing a 50% reduction in the response to the agonist, and EC50 is the agonist concentration which causes half of the maximal response.

T1 sequence (P34969 1-432): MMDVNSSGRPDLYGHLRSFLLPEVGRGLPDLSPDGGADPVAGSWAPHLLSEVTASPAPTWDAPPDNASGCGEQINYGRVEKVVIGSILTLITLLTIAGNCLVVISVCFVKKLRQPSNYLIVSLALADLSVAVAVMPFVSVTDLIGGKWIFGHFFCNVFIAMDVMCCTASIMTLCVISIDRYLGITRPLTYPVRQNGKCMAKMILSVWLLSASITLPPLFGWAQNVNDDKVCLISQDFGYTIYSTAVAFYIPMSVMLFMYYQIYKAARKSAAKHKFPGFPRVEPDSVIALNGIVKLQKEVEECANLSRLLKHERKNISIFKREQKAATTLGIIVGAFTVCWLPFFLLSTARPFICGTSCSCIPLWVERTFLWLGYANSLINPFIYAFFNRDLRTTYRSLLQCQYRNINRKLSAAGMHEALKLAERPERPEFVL

SMILES	Kb [nM]
CC1(C)Cc2cccc(OCCN3CCC(NS(=O)(=O)c4ccc(F)cc4)CC3)c2O1 [Compound 6, 4-Fluoro-N-{1-[2-(2,2-dimethyl-2,3-dihydrobenzofuran-7-yloxy)ethyl]piperidin-4-yl} benzenesulfonamide]	186 ± 37
CC1(C)Cc2cccc(OCCN3CCC(NS(=O)(=O)c4cc(Cl)ccc4F)CC3)c2O1 [Compound 8, 5-Chloro-2-fluoro-N-{1-[2-(2,2-dimethyl-2,3-dihydrobenzofuran-7-yloxy)ethyl]piperidin-4-yl}benzenesulfonamide]	141 ± 43
CC1(C)Cc2cccc(OCCN3CCC(NS(=O)(=O)c4cncc5ccccc45)CC3)c2O1 [Compound 13, 4-Isoquinoline-N-{1-[2-(2,2-dimethyl-2,3-dihydrobenzofuran-7-yloxy)ethyl]piperidin-4-yl}sulfonamide]	155 ± 30
